Counter-ions that a name gives are not always drawn.
Experiments:
Opiate μ = Opiate μ (Homo sapiens, UniProt P35372); assay: NSAIDS and Opioid Receptor Test: Opiate μ; format: binding
Description: (§1) Compounds were screened as DMSO solutions at 10 μM, 100 μM, or 200 μM and values represent percent inhibition of control-specific binding. […] As NSAID and opioid mechanisms of action are precluded, a person of ordinary skill in the art understands that undesirable side effects associated with inhibition of COX receptors in NSAIDs and activation of opiate receptors in opioids can be avoided by compounds described herein. Furthermore, opioids are known to lose their analgesic potency after to continued administration. (See Benyamin, et al. “Opioid Complications and Side Effects” Pain Physician 11 (2008): S105-S120). As the data indicates compounds described herein have a different mechanism action compared to opioids, a person of ordinary skill in the art would appreciate that compounds described herein would not be expected to lose their analgesic potency like opioids after continued admininistration.

Opiate δ2 = Opiate δ2 (Homo sapiens, UniProt P41143); assay: NSAIDS and Opioid Receptor Test: Opiate δ2; format: binding
Description: as §1

[1] = Bioavailability Test (rat pharmacokinetics); format: in vivo
Description: Oral bioavailability of compounds of Formulae (Ie), (Ih), (Ik), and (Ir), or a pharmaceutically acceptable salt of any of the foregoing, were evaluated in fasted male Sprague-Dawley (SD) rats weighing 200-225g. Compounds were dosed at 3 mg/kg (IV) and 30 mg/kg (PO). Unless otherwise noted, compounds were dissolved in 0.9% saline for IV dosing and 100% sterile water for PO dosing. Pharmacokinetic parameters were determined using Phoenix WinNonlin (v7.0). […]

Opiate κ = Opiate κ (Homo sapiens, UniProt P41145); assay: NSAIDS and Opioid Receptor Test: Opiate κ; format: binding
Description: as §1

male Sprague-Dawley rats [2] = assay: Formalin Paw Test, rat, oral; format: in vivo; settings: 30 mg/kg
Description: (§2) One test compound or the vehicle was administered to each rat or mouse in each test group (8 rats or mice per group). Non-fasted male Sprague-Dawley rats weighing 200-225 g or non-fasted male ICR mice weighing 23±3 g were used. […] Responses were measured every 5 minutes after the formalin injection for 35 minutes. The results in Table 2 are for oral administration in rat and the results in Table 3 are for intraperitoneal administration in mouse. In Tables 2 and 3, 'A' designates <70 seconds of paw licking, 'B' designates >70 and <165 seconds of paw licking, and 'C' designates >165 seconds of paw licking.

COX-1 = COX-1 (Homo sapiens, UniProt P23219); assay: NSAIDS and Opioid Receptor Test: COX-1; format: biochemical
Description: as §1

COX-2 = target: T1, COX-2 (Homo sapiens, UniProt P35354); assay: NSAIDS and Opioid Receptor Test: COX-2; format: biochemical
T1 sequence (P35354 18-604): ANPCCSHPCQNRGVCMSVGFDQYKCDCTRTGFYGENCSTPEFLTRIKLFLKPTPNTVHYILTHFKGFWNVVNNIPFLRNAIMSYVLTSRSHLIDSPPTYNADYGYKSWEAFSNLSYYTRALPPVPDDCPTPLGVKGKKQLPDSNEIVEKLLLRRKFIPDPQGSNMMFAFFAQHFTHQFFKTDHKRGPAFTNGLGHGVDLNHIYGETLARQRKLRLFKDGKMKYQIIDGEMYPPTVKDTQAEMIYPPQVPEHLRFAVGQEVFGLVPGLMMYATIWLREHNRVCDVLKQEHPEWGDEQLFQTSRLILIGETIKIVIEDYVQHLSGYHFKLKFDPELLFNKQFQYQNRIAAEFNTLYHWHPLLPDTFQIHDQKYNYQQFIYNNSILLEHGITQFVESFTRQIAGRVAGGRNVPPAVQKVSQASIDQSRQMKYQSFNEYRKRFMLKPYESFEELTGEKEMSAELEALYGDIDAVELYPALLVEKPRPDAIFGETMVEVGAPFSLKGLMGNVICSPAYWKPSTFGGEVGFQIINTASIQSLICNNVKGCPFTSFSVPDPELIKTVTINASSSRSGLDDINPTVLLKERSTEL
Description: as §1

male ICR mice = assay: Formalin Paw Test, mouse, intraperitoneal; format: in vivo; settings: 60 mg/kg; for Early Phase, seconds of paw licking: early/acute phase (0-10 minutes); for Late Phase, seconds of paw licking: late/tonic phase (10-35 minutes)
Description: as §2

adult male C57BL/6 mice = assay: Conditioned Place Preference (Abuse) Test; format: in vivo, mouse
From the text: A conditioned place preference (CPP) model was used to assess the reward properties of compounds of formulae (Ie), or a pharmaceutically acceptable salt of any of the foregoing, in adult male C57BL/6 mice. The CPP model apparatus consisted of a Plexiglas© test unit having three (A, B, C) compartments (9 cm×9 cm×16 cm) configured to allow access to all chambers. Compartments A and C had textually distinct flooring and wall marking. Mice were placed in the middle compartment with free access to the other compartments. On day 1 and 2, the “naive chamber preference” was assessed by placing the animal in the middle chamber twice a day (AM and PM) for 30 min on two consecutive days, with the chamber showing the greatest residence time being called the “preferred chamber”. On “drug pairing days” (days 5, 6, 7 and 8) mice were injected IP with vehicle (50 mM citric acid) in the AM in the preferred chamber and the drug/vehicle in the afternoon in the non-preferred chamber for four consecutive days. On the morning of day 9 (the day after the last drug pairing), the “drug chamber preference” was assessed by placing the mouse (absent any injection) in the middle chamber, with free access to all chambers for 30 minutes. This was repeated five days later (day fourteen), with no intervening drug treatment.
The time spent on days 9 and 14 (e.g. […] respectively after the last drug treatment) in the drug associated chamber was the test datum and is represented in FIG. 1. […] In contrast, there was no increase in the non-preferred chamber residence time when the least-preferred chamber was paired with saline, APAP or test compounds 2 or 28 on either days 9 or 14, or days 0 or 5.

male Sprague-Dawley rats [3] = assay: UVB Inflammatory Pain Test (thermal hyperalgesia); format: in vivo; settings: rat, oral, 300 mg/kg
Description: UVB irradiation to the surface of the hind paw was used to induce cutaneous inflammatory pain in non-fasted male Sprague-Dawley rats weighing 175-300 g. On Day −3, animals were restrained and the plantar surface of the left hind paw was exposed to 350 mJoules/cm^2 of UVB irradiation using a narrow band UVB light source (Daavlin®, Bryan, Ohio). Following UVB irradiation, animals were returned to their home cage. Thermal hyperalgesia was assessed prior to dosing and approximately 1, 2, and 4 hours after dosing on Day 0 using a radiant heat plantar test apparatus (IITC Life Sciences©; Woodland Hills, Calif.). Animals were placed in individual acrylic chambers on a glass platform warmed to 30±2° C. and allowed to acclimate to their surroundings for a minimum of 15 minutes before testing. The stimulus was presented to the plantar surface and the timer was activated. The stimulus intensity was set such that pre-injury paw withdrawal latencies were approximately 12-18 seconds. Paw withdrawal latency values were recorded at the first observed nocifensive behavior (paw withdrawal, flinching, biting and/or licking). Three paw withdrawal latencies were measured for each hind paw per time point. The mean of the 3 values was taken as the paw withdrawal latency for that time point. A maximum cutoff latency of 30 seconds was used to prevent injury to the animal. The mean and standard error of the mean (SEM) were determined for each paw for each treatment group at each time point. Test compounds were administered orally at concentrations of 3, 10, 30 or 100 mg/kg; celecoxib was administered orally at a concentration of 30 mg/kg; and acetaminophen was administered orally at a concentration of 300 mg/kg. The control group received the vehicle (sterile water). In Table 4, ‘A’ designates >8 seconds of paw withdrawal latency, ‘B’ designates >6 and <8 seconds of paw withdrawal latency, and ‘C’ designates <6 seconds of paw withdrawal latency.
The results provided in Table 4 are for oral administration in rats. […] Furthermore, while acetaminophen was dosed at 300 mg/kg, compounds of Formulae (Ie), (Ih) and (Ik), or a pharmaceutically acceptable salt of any of the foregoing, were dosed at 3 mg/kg, 10 mg/kg and 100 mg/kg.

Opiate δ1 = Opiate δ1 (Homo sapiens, UniProt P41143); assay: NSAIDS and Opioid Receptor Test: Opiate δ1; format: binding
Description: as §1

male Sprague-Dawley rats [4] = assay: Post-Incisional (Brennan) Pain Test; format: in vivo; settings: rat, oral; for cumulative pain score, 4 h: 4 h post-dosing; for cumulative pain score, 24 h: 24 h post-dosing
Description: Incisional pain was induced in non-fasted male Sprague-Dawley rats weighing 180-300 g by making a 1-cm plantar incision in the left hind paw and is designed to mimic pain and sensitivity similar to what is reported by patients after surgery. Dosing occurred at the time of incision and spontaneous pain was measured 4 and 24 hours post-dosing using a cumulative pain score. The unrestrained animals were placed on a metal mesh platform and allowed to acclimate for about 15 min/ Each animal was closely observed during a 1-min period repeated every 5 min for 1 h (12 times total). Depending on the position in which the foot was found during the scoring period, a score of 0, 1, or 2 was given. Full weight bearing of the foot (score=0) was present if the skin on the plantar surface of the paw wound was blanched or distorted by the mesh. If the foot was completely off the mesh, or one or more instances of licking or flinching was observed, a score of 2 was recorded and the licking or flinching was noted but not counted. If the plantar surface of the paw touched the mesh without blanching or distorting, a score of 1 was given. The sum of the 12 scores obtained during the 1 h session was calculated (maximum score=24) for each animal. Observations were made during hours 4 and 24. Test articles were administered orally at concentrations of 10, 30 or 100 mg/kg and ketoprofen was administered subcutaneously at a concentration of 10 mg/kg. The control group received the vehicle (sterile water). In Table 6, ‘A’ designates a cumulative pain score of ≤11, ‘B’ designates >11 and ≤16, and ‘C’ designates >16.
The results provided in Table 6 are for oral administration in rats.

[5] = male, Sprague-Dawley, in vivo, IV 3 mg/kg, 0.9% saline
[6] = male, Sprague-Dawley, in vivo, PO 30 mg/kg, sterile water

Chain of Opiate μ (P35372 whole entry): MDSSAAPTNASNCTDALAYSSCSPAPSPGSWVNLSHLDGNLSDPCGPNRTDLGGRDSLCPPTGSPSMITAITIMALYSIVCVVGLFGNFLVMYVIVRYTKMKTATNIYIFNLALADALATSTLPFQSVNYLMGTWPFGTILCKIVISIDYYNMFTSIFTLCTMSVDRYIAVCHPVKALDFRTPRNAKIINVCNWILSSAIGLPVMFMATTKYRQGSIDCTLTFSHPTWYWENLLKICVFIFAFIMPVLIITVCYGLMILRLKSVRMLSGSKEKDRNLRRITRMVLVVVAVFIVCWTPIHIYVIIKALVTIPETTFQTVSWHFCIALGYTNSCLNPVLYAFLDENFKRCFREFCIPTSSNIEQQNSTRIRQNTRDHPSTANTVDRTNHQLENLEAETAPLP
Chain of Opiate κ (P41145 whole entry): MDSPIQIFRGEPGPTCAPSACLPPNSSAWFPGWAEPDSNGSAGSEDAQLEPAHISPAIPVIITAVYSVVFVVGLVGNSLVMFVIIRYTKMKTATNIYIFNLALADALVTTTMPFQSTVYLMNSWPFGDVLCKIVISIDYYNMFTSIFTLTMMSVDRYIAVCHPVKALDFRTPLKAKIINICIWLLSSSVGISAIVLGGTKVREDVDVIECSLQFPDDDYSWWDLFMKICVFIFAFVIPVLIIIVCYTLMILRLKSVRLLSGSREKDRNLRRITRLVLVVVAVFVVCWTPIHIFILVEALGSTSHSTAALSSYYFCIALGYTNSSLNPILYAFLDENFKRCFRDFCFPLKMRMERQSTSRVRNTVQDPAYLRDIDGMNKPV
Chain of Opiate δ2 (P41143 whole entry): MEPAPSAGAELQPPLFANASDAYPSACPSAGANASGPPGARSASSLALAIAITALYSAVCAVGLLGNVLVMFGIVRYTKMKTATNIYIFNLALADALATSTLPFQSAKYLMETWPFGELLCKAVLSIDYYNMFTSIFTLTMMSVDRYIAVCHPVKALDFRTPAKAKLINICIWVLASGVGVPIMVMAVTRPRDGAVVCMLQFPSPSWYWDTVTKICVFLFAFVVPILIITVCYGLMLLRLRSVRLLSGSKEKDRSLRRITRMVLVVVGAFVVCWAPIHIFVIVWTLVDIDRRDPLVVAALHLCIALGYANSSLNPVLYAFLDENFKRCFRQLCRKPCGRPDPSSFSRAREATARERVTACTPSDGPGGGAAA
Chain of COX-1 (P23219 24-599): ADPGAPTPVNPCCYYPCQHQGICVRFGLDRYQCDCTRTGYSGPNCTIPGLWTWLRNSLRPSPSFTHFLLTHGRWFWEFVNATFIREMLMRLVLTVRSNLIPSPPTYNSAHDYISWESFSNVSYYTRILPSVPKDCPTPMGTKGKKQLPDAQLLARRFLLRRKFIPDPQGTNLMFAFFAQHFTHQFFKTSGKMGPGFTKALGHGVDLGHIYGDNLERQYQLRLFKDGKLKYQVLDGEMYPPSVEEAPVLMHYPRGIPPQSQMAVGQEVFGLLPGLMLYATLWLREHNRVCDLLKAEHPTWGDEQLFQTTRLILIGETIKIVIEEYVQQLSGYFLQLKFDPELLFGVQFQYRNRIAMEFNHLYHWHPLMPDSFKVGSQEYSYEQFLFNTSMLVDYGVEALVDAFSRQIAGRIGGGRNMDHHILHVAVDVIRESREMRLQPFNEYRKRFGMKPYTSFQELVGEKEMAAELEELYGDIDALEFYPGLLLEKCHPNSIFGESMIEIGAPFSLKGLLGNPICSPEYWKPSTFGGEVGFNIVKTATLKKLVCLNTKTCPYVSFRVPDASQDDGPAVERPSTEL
Chain of Opiate δ1 (P41143 whole entry): as the sequence (P41143 whole entry) above

`Cl.NC12CC(c3cccc(C(F)(F)F)n3)(C1)C2` [Compound 13, 3-(6-(Trifluoromethyl)pyridin-2-yl)bicyclo[1.1.1]pentan-1-amine hydrochloride] gave an inhibition at 200 µM (Opiate μ; 200 μM) of 56%, an inhibition at 200 µM (Opiate δ2; 200 μM) of 6% and an F ([1]; PO 30 mg/kg vs IV 3 mg/kg) of 16%. The AUC(0-inf) [1, 5] was 3 µM·h, the clearance [1, 5] was 73 mL/min/kg and the half-life [1, 5] was 9.5 h. For the same molecule, the Vd ([1]; male, Sprague-Dawley, in vivo, IV 3 mg/kg, 0.9% saline, read-out: Vdss) was 20.2 L/kg, the AUC(0-inf) [1, 6] was 35 µM·h and the Cmax [1, 6] was 11 µM. For the same molecule, the Tmax [1, 6] was 0.6 h, the half-life [1, 6] was 6.8 h and the inhibition at 200 µM (Opiate κ; 200 μM) was 33%. The “Early Phase, seconds of paw licking” value (male Sprague-Dawley rats [2]; early/acute phase (0-10 minutes)) was “A (<70 seconds of paw licking)”, the “Late Phase, seconds of paw licking” value (male Sprague-Dawley rats [2]; late/tonic phase (10-35 minutes)) was “A (<70 seconds of paw licking)” and the inhibition at 200 µM (COX-1; 200 μM) was 6%. For the same molecule, the inhibition at 200 µM (COX-2; 200 μM) was 8%.
For `CC(C)[C@H](N)C(=O)NC12CC(C(F)(F)F)(C1)C2` [Compound 23, (S)-2-Amino-3-methyl-N-(3-(trifluoromethyl)bicyclo[1.1.1]pentan-1-yl)butanamide hydrochloride], the “Early Phase, seconds of paw licking” value (male ICR mice) was “A (<70 seconds of paw licking)” and the “Late Phase, seconds of paw licking” value (male ICR mice) was “C (>165 seconds of paw licking)”.
In the case of `CC(=O)Nc1ccc(O)cc1` [Acetaminophen, reference compound], the “least preferred (drug associated) chamber residence time” value (shortened to “least preferred”) (adult male C57BL/6 mice; mouse, in vivo, ip) is reported as “no increase”, the inhibition at 10 µM (Opiate μ; 10 μM) is reported as -5% and the “paw withdrawal latency, 1 h” value (male Sprague-Dawley rats [3]; 1 h after dosing) is reported as “A (>8 seconds of paw withdrawal latency)”. The “paw withdrawal latency, 2 h” value (male Sprague-Dawley rats [3]; 2 h after dosing) was “A (>8 seconds of paw withdrawal latency)”, the “paw withdrawal latency, 4 h” value (male Sprague-Dawley rats [3]; 4 h after dosing) was “A (>8 seconds of paw withdrawal latency)” and the inhibition at 10 µM (Opiate κ; 10 μM) was -1%. It also gave an inhibition at 10 µM (Opiate δ1) of 2%, an inhibition at 10 µM (COX-1; read-out: % Inhibition, COX-1 (human)) of -7% and an inhibition at 10 µM (COX-2; read-out: % Inhibition, COX-2 (human)) of 3%.
In the case of `NC12CC(C(F)(F)F)(C1)C2` [Compound 28, 3-(trifluoromethyl)bicyclo[1.1.1]pentan-1-amine hydrochloride], the “least preferred” value (adult male C57BL/6 mice; mouse, in vivo, ip) is reported as “no increase”, the inhibition at 100 µM (Opiate μ; 100 μM) is reported as 3% and the inhibition at 100 µM (Opiate δ2; 100 μM) is reported as 2%. For the same molecule, the inhibition at 100 µM (Opiate κ; 100 μM) was 1%, the “cumulative pain score, 4 h” value (male Sprague-Dawley rats [4]; 10 mg/kg) was “C (>16)” and the “cumulative pain score, 24 h” value (male Sprague-Dawley rats [4]; 10 mg/kg) was “C (>16)”. For the same molecule, the “cumulative pain score, 4 h” value (male Sprague-Dawley rats [4]; 30 mg/kg) was “B (>11 and ≤16)”, the “cumulative pain score, 24 h” value (male Sprague-Dawley rats [4]; 30 mg/kg) was “B (>11 and ≤16)” and the “cumulative pain score, 4 h” value (male Sprague-Dawley rats [4]; 100 mg/kg) was “B (>11 and ≤16)”. For the same molecule, the “cumulative pain score, 24 h” value (male Sprague-Dawley rats [4]; 100 mg/kg) was “A (a cumulative pain score of ≤11)”.
For `CN1CC[C@]23c4c5ccc(O)c4O[C@H]2[C@@H](O)C=C[C@H]3[C@H]1C5` [morphine, reference compound], the “least preferred” value (adult male C57BL/6 mice; mice, IP, drug pairing 4 consecutive days, assessed on day 9) was “significant increase” and the “least preferred” value (adult male C57BL/6 mice; mice, IP, drug pairing 4 consecutive days, assessed on day 14) was “significant increase”.
In the case of `CCOC(=O)NC12CC(C(F)(F)F)(C1)C2` [Compound 24, Ethyl (3-(trifluoromethyl)bicyclo[1.1.1]pentan-1-yl)carbamate], the “Early Phase, seconds of paw licking” value (male ICR mice) is reported as “A (<70 seconds of paw licking)” and the “Late Phase, seconds of paw licking” value (male ICR mice) is reported as “B (>70 and <165 seconds of paw licking)”.

Source: patent US11242327B2, “Analgesic compounds” (RECURIUM IP HOLDINGS, LLC, priority 2017, dated 2022)
